Test results published in PMC13165411 (Molecules, 2026).
Where “and” joins values, the source holds several entries; their conditions need not be identical. Equal values may be shown once.

Experiments:
[1] = Inhibitor stability under oxidative conditions by direct-infusion ESI-MS; assay type: physicochemical; settings: 100 μM compound, 44 mM H2O2, 30 min, 37 °C, no HNE
Protocol: Mass spectrometry analysis was performed using an Advion Interchim Scientific expression® Compact Mass Spectrometer (CMS) (Advion Interchim Scientific, Ithaca, NY, USA) equipped with an ESI source. Stock solutions of each inhibitor were prepared in DMSO and diluted in an assay buffer to a final concentration of 100 μM (DMSO ≤ 1% v/v). Aliquots were incubated in the presence or absence of H2O2 (44 mM final concentration) for 30 min at 37 °C, matching the oxidative treatment used in the enzymatic assays. After incubation, samples were diluted 1:1 (v/v) with water containing 0.1% formic acid and directly analyzed in both positive- and negative-ion mode. Mass spectra were analyzed with Mass Express software version 5.1.

[2] = Cytotoxicity on A549 cell monolayers (resazurin reduction assay); assay type: cell-based; settings: human, A549 cells (confluent monolayer), 0.1 to 1000 µM, 16 h exposure, read-out: Cell viability (% of untreated control)
Protocol: Cells were obtained from the American Type Culture Collection (ATCC, Manassas, VA, USA) and cultured according to the supplier’s instructions. Cells were maintained in DMEM supplemented with 10% fetal bovine serum (FBS) and seeded into sterile 96-well plates at a density of 1 × 10^5 cells per well, allowing for the formation of a confluent monolayer prior to treatment. After 24 h incubation at 37 °C (5% CO2), the culture medium was replaced with 200 μL of fresh medium containing ten-fold dilutions of the test compounds, ranging from 0.1 to 1000 µM.
After a 16 h exposure period, cell viability was assessed via the resazurin reduction assay. Briefly, 30 μL of a 0.01% resazurin solution (Sigma-Aldrich, St. Louis, MO, USA) was added to each well and incubated for 4 h at 37 °C. The reduction of resazurin to resorufin by metabolically active cells was quantified using a ClarioSTAR microplate reader (BMG Labtech, Ortenberg, Germany), with excitation and emission wavelengths set at 520 nm and 580 nm, respectively. All experiments were performed in triplicate, and cell viability was expressed as a percentage relative to untreated control wells.

[3] = target: T1, HNE under oxidizing conditions (oxidized HNE) (Homo sapiens, UniProt P08246); test: HNE inhibition assay under oxidizing conditions (HNE pre-incubated with 44 mM H2O2); assay type: biochemical; settings: for remaining activity at 100 µM: HNE under oxidizing conditions (44 mM H2O2), maximum inhibitor concentration 100 μM, read-out: Residual Activity at Maximum Inhibitor Concentration (%)
T1 construct: purchased Abcam
T1 sequence (P08246 30-247 limits assumed): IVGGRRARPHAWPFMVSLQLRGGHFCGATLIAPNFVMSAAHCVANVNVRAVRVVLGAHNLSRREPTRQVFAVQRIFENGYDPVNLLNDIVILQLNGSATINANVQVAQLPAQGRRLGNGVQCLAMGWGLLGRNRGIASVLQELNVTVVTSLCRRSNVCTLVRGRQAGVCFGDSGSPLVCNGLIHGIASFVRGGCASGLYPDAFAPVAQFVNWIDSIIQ
Protocol: HNE activity under oxidative conditions was determined using the colorimetric assay described above. Briefly, HNE was pre-incubated with 1 μL of 30% (w/v) H2O2 (final concentration 44 mM in a total reaction volume of 200 μL) for 60 min at 37 °C. The oxidative conditions used in this study were designed to promote cumulative oxidative modifications of HNE rather than to reproduce physiological ROS concentrations, allowing simulation of oxidative stress in chronically inflamed tissues where repeated ROS exposure leads to progressive protein oxidation. The kinetic parameters of oxidized HNE were determined as described above. Subsequently, inhibition assays were performed by initiating the reaction with substrate (final concentration 0.15 mM) in the presence of increasing concentrations of inhibitor (0.1–100 μM). The reaction mixtures were then incubated at 37 °C for 45 min and then terminated by the addition of 20 μL of 0.45 M TCA. Samples were cooled on ice, centrifuged, and analyzed as described in Section 2.4.
Residual enzymatic activity (%) was calculated relative to HNE activity in the absence of inhibitors, set as 100%. The lowest observed activity under the experimental conditions was taken as the maximal inhibition achieved within this assay range.

[4] = target: T2, Human neutrophil elastase (HNE) (Homo sapiens, UniProt P08246); test: HNE colorimetric inhibition and steady-state kinetics assay (MeOSuc-Ala-Ala-Pro-Val-pNA), native conditions; assay type: biochemical; settings: inhibitor 0.1-100 μM; for Mode of inhibition (Lineweaver-Burk plots): steady-state kinetics
T2 construct: purchased Abcam
T2 sequence (P08246 30-267): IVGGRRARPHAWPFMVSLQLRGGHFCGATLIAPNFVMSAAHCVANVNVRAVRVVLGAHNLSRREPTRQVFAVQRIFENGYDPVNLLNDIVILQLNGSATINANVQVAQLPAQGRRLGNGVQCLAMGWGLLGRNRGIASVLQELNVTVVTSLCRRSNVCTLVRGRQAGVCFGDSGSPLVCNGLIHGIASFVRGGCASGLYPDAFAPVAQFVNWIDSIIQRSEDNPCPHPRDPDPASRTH
Protocol: HNE activity was assessed through a colorimetric assay based on the hydrolysis of the synthetic peptide substrate MeOSuc-Ala-Ala-Pro-Val-pNA [37]. To determine the steady-state kinetic parameters, 0.4 μg of HNE (corresponding to a final concentration of approximately 0.05 μM) were added to an incubation buffer consisting of 50 mM Tris-HCl, pH 7.8 containing 500 mM NaCl. The reaction was initiated by adding a fixed volume (20 µL) of intermediate substrate working solutions to the enzyme–buffer mixture, reaching a final reaction volume of 200 µL. These working solutions were prepared by diluting a 20 mM substrate stock solution in DMSO with incubation buffer, ensuring that the final DMSO concentration remained constant at 1% (v/v) across all tested substrate concentrations (ranging from 0.075 to 2.4 mM). This approach was applied to all samples, including blanks, to maintain a uniform solvent environment. The mixtures were incubated at 37 °C for 45 min. […] The reaction was then quenched with 20 μL of 0.45 M trichloroacetic acid (TCA). After cooling on ice for 30 min, the samples were centrifuged at 11,500 rpm for 10 min to remove precipitated proteins. The concentration of p-nitroaniline (p-NA) released into the supernatant was determined by measuring the absorbance at 410 nm. All assays were performed in triplicate, and the kinetic parameters were determined by fitting the experimental data to the Michaelis–Menten equation using GraphPad Prism 8.0 software (GraphPad Software, San Diego, CA, USA).
Stock solutions of both inhibitors were prepared in DMSO and diluted with incubation buffer to obtain intermediate working solutions. A fixed volume of these working solutions was added to each reaction mixture so that the final DMSO concentration remained constant at 1% (v/v) across all inhibitor concentrations. […]
Subsequently, the inhibition constants (Ki) were determined independently from IC50 values by performing steady-state kinetic assays at varying concentrations of both substrate and inhibitors. […]

Chemical stability under oxidizing conditions (ESI-MS spectra vs untreated control) [1]	IC50 ([3]; HNE pre-incubated with 44 mM H2O2, 60 min, 37 °C, substrate 0.15 mM) [nM]	remaining activity at 100 µM [3] [%]	Mode of inhibition (Lineweaver-Burk plots) [4]	IC50 ([4]; substrate 0.15 mM, 37 °C, 45 min, read-out: IC50 against HNE activity)	Inhibition of oxidized HNE at the highest tested concentration ([3]; 100 μM inhibitor, HNE pre-treated with 44 mM H2O2)	SMILES	viability at 16 h [2] [%]
no additional peaks	4000 ± 410	< 20	competitive inhibition	2800 nM and 2840 nM	–	Cc1c(-c2ccnn2C)cc(C(=O)NCc2ccc(S(C)(=O)=O)cn2)c(=O)n1-c1cccc(C(F)(F)F)c1 [Alvelestat]	~100
no additional peaks	–	> 80	competitive inhibition	–	failed to achieve significant inhibition	CC(C)(C)C(=O)Oc1ccc(S(=O)(=O)Nc2ccccc2C(=O)NCC(=O)O)cc1 [Sivelestat]	~100
